The subject of data set [1] is pPKB S473 in A2058 cells. In words: In-cell Western blot, pPKB S473. The data set is classed as cell-based. The conditions noted are these: treated for 1 hour, normalized to α-tubulin.
Description: (§1) Cells are fixed with 4% paraformaldehyde for 30 minutes at room temperature, washed 2 times with 1% BSA in PBS, permeabilized with 0.1% Triton X-100 in PBS/1% BSA for 30 minutes at room temperature and blocked with 5% goat serum in PBS/1% BSA/0.1% Triton X-100 for 30 minutes at room temperature. […] Cells are washed 3 times 5 minutes with PBS/1% BSA/0.1% triton and plate scanned with the Odyssey Infrared Scanning system using both 700 and 800 nm channels. […] To correct for background staining in the data analysis wells are treated only with secondary antibodies.
(§2) For data analysis the mean background signal from channel 700 nm and 800 nm are subtracted from each signal in channel 700 nm and 800 nm, respectively.
(§3) IC50 values of each compound are determined by plotting the normalized pPBK S473 and pS6 S235/S236 signals, respectively, versus the compound concentrations (in logarithmic scale) and then by fitting a sigmoidal dose-response curve with variable slope to the data using GraphPad™ Prism.
Data set [2] relates to pS6 S235/S236 in A2058 cells. In words: In-cell Western blot, pS6 S235/S236. The class given is cell-based. The conditions noted are these: treated for 1 hour, normalized to α-tubulin.
Description: as §1, §2, §3
In data set [3] the test system is female NMRI mice, nonepileptic (sham-SE) and epileptic (pilo-SE). Put plainly: Maximal electroshock seizure threshold test (MEST). The class given is in vivo, mouse. As to conditions: for CC50 / threshold increase: Phenobarbital; for increase of the seizure threshold in MEST: 5 mg/kg rapamycin; for increase of the threshold: rapamycin after intraperitoneal injections. The method, then:
A total of 166 adult female NMRI mice were used obtained from Charles River (Sulzfeld, Germany) at a weight range of 21-25 g (mice). Animals were kept under the following conditions: Housing: Animals were housed in groups of max. 8 mice under controlled conditions (temperature: 22±1° C.; humidity: 50% 60%/), under a 12-h light-dark cycle (lights on at 6:00 a.m.). Feeding: Standard laboratory chow (Altromin 1324 standard diet, Altromin Spezialfutter GmbH, Lage, Germany) was provided ad libitum. Drinking water: Tap water was provided ad libitum.
The MEST determines a population seizure threshold in groups of ˜20 animals and not the threshold for an individual animal. In the present study, the MEST was determined by a staircase procedure as previously described. A stimulator (BMT Medizintechnik, Berlin, Germany) that delivered a constant current (adjustable from 1-200 mA regardless of the impedance of the animal) with sinusoidal pulses (50/sec) for 0.2 sec was used.
Current administration was performed via bilateral transcorneal stimulation (using copper electrodes). Before transcorneal stimulation, a drop of tetracaine solution (2%) was administered to the eyes of the mouse for local anesthesia. Two minutes later, the mouse was restrained by hand to press the copper electrodes on both corneas while the stimulus was applied by stepping on a foot pedal switch connected with the stimulator. Electrodes were covered with soft leather and soaked with saline before each current application. […] The first stimulation was started with a current near to the control threshold.
3 (HCl): 40/100 mg in 10 ml (Suspension; 5% PEG 400 and 2% Tween 80, HPBCD (10%6)) • Cpd. 8 (HCl): 12.5/25 mg in 10 ml (5% PEG 400 and 2% Tween 80, HPBCD (10%))
Statistical analysis were calculated using Student's t-test. All tests were used two-sided; a P<0.05 was considered significant.
We performed no special tests for the determination of adverse effects. Mice were observed about 30 min after injection in their home cages for obvious sedation or reduction of wellbeing. Five minutes before electrical stimulation mice were again observed in their home cages and two minutes before stimulation during handling procedure for treatment with local anaesthesia. Every obvious variation from normal behavior was noted. Only phenobarbital induced noticeable sedation which lasted for more than 60 min. All other test drugs (including vehicle solutions) were tolerated without any obvious adverse effects.
A general note: In the maximal electroshock model the usual endpoint is tonic extension of the hind limbs.

Setting [4] is: 50 mg/kg Levetiracetam i.p., pretreatment 1 h.

As to `C[C@H]1COCCN1c1nc(-c2cnc(N)nc2C(F)F)nc(N2CCOCC2)n1` [Compound 9, (S)-4-(difluoromethyl)-5-(4-(3-methylmorpholino)-6-morpholino-1,3,5-triazin-2-yl)pyrimidin-2-amine], the results for the IC50 in data set [1] (Homo sapiens) and in data set [2] (Homo sapiens) were 35 nM and 72 nM, respectively.

Regarding `Nc1cc(C(F)F)c(-c2nc(N3CCNCC3)nc(N3CCOCC3)n2)cn1` [Compound 12, 4-(difluoromethyl)-5-(4-morpholino-6-(piperazin-1-yl)-1,3,5-triazin-2-yl)pyridin-2-amine], the results for the IC50 in data set [1] and in data set [2] were 219 nM and 407 nM, respectively.

Regarding `Nc1ncc(-c2nc(N3CCNCC3)nc(N3CCOCC3)n2)c(C(F)F)n1` [Compound 13, 4-(difluoromethyl)-5-(4-morpholino-6-(piperazin-1-yl)-1,3,5-triazin-2-yl)pyrimidin-2-amine], the IC50 in data set [1] came to 37 nM; in data set [2] it was 120 nM.

On to `Nc1cc(C(F)F)c(-c2cc(N3CCOCC3)nc(N3CCOCC3)n2)cn1` [Compound 16, 4-(difluoromethyl)-5-(2,6-dimorpholinopyrimidin-4-yl)pyridin-2-amine], for which the IC50 amounted to 207 nM in data set [1] (Homo sapiens) and 184 nM in data set [2] (Homo sapiens, A2058, 1 h).

On to `Nc1ncc(-c2cc(N3CCOCC3)nc(N3CCOCC3)n2)c(C(F)F)n1` [Compound 17, 4′-(difluoromethyl)-2,6-dimorpholino-[4,5′-bipyrimidin]-2′-amine], for which, in data set [2] (Homo sapiens, A2058, 1 h), the IC50 was 149 nM.

Consider `Nc1cc(C(F)F)c(-c2nc(N3CCOCC3)cc(N3CCOCC3)n2)cn1` [Compound 18, 4-(difluoromethyl)-5-(4,6-dimorpholinopyrimidin-2-yl)pyridin-2-amine], for which the IC50 was determined as 243 nM in data set [1] (Homo sapiens) and 256 nM in data set [2] (Homo sapiens, A2058, 1 h).

For `Nc1cc(C(F)F)c(-c2nc(N3CCOCC3)nc(N3CCSCC3)n2)cn1` [Compound 20, 4-(difluoromethyl)-5-(4-morpholino-6-thiomorpholino-1,3,5-triazin-2-Yl)pyridin-2-amine], the IC50 stood at 146 nM in data set [1] (Homo sapiens, A2058, 1 h) and 250 nM in data set [2] (Homo sapiens, A2058, 1 h).

Consider `Nc1ncc(-c2nc(N3CCOCC3)nc(N3CCSCC3)n2)c(C(F)F)n1` [Compound 21, 4-(difluoromethyl)-5-(4-morpholino-6-thiomorpholino-1,3,5-triazin-2-yl)pyrimidin-2-amine], for which the IC50 in data set [1] (Homo sapiens, A2058, 1 h) turned out to be 57 nM; in data set [2] (Homo sapiens, A2058, 1 h), 216 nM.

`C[C@H]1COCCN1c1cc(-c2cnc(N)cc2C(F)F)nc(N2CCOCC2)n1` [Compound 27, (S)-4-(difluoromethyl)-5-(6-(3-methylmorpholino)-2-morpholinopyrimidin-4-yl)pyridin-2-amine]: the half-inhibitory concentration (IC50) in data set [1] (Homo sapiens) was determined as 614 nM; in data set [2] (Homo sapiens), 766 nM.

Regarding `C[C@H]1COCCN1c1nc(-c2cnc(N)cc2C(F)F)cc(N2CCOCC2)n1` [Compound 31, (S)-4-(difluoromethyl)-5-(2-(3-methylmorpholino)-6-morpholinopyrimidin-4-yl)pyridin-2-amine], the IC50 in data set [1] (Homo sapiens) turned out to be 146 nM; in data set [2] (Homo sapiens) it was 124 nM.

As to `C[C@H]1COCCN1c1nc(-c2cnc(N)nc2C(F)F)cc(N2CCOCC2)n1` [Compound 32, (S)-4′-(difluoromethyl)-2-(3-methylmorpholino)-6-morpholino-[4,5′-bipyrimidin]-2′-amine], the IC50 in data set [1] (Homo sapiens) was determined as 100 nM; in data set [2] (Homo sapiens), 387 nM.

For the compound `CC1(C)COCCN1c1nc(-c2cnc(N)cc2C(F)F)nc(N2CCOCC2(C)C)n1` [Compound 39, 5-[4,6-bis(3,3-dimethylmorpholin-4-yl)-1,3,5-triazin-2-yl]-4-(difluoromethyl)pyridin-2-amine], the IC50 is 106 nM in data set [1] (Homo sapiens, A2058, 1 h) and 47 nM in data set [2] (Homo sapiens, A2058, 1 h).

In the case of `C[C@@H]1COC[C@H](C)N1c1nc(-c2cnc(N)cc2C(F)F)nc(N2[C@H](C)COC[C@@H]2C)n1` [Compound 40, 5-[4,6-bis[(3R,5S)-3,5-dimethylmorpholin-4-yl]-1,3,5-triazin-2-yl]-4-(difluoromethyl)pyridin-2-amine], the IC50 was determined as 252 nM in data set [1] (Homo sapiens) and 160 nM in data set [2] (Homo sapiens).

As for `C[C@@H]1COCCN1c1nc(-c2cnc(N)cc2C(F)F)nc(N2CCOC[C@H]2C)n1` [Compound 41, 5-[4,6-bis[(3R)-3-methylmorpholin-4-yl]-1,3,5-triazin-2-yl]-4-(difluoromethyl)pyridin-2-amine], the values for the IC50 in data set [1] (Homo sapiens) and in data set [2] (Homo sapiens) were 436 nM and 261 nM, respectively.

As to `CC1(C)COCCN1c1nc(-c2cnc(N)cc2C(F)F)nc(N2CCOCC2)n1` [Compound 42, 4-(difluoromethyl)-5-[4-(3,3-dimethylmorpholin-4-yl)-6-morpholino-1,3,5-triazin-2-yl]pyridin-2-amine], the IC50 in data set [1] (Homo sapiens, A2058, 1 h) turned out to be 54 nM; in data set [2] (Homo sapiens, A2058, 1 h), 45 nM.

On to `COC[C@@H]1COCCN1c1nc(-c2cnc(N)cc2C(F)F)nc(N2CCOC[C@H]2C)n1` [Compound 46, 4-(difluoromethyl)-5-[4-[(3R)-3-(methoxymethyl)morpholin-4-yl]-6-[(3R)-3-methylmorpholin-4-yl]-1,3,5-triazin-2-yl]pyridin-2-amine], for which the IC50 in data set [1] (Homo sapiens, A2058, 1 h) was 956 nM; in data set [2] (Homo sapiens, A2058, 1 h), 426 nM.

For the compound `C[C@@H]1COCCN1c1nc(-c2cnc(N)cc2C(F)F)nc(N2C3COCC2C3)n1` [Compound 50, 4-(difluoromethyl)-5-[4-[(3R)-3-methylmorpholin-4-yl]-6-(3-oxa-6-azabicyclo[3.1.1]heptan-6-yl)-1,3,5-triazin-2-yl]pyridin-2-amine], the IC50 is 1560 nM in data set [1] (Homo sapiens, A2058, 1 h) and 407 nM in data set [2] (Homo sapiens, A2058, 1 h).

`CC[C@@H]1COCCN1c1nc(-c2cnc(N)cc2C(F)F)nc(N2CCOC[C@H]2CC)n1` [Compound 54, 5-[4,6-bis[(3R)-3-ethylmorpholin-4-yl]-1,3,5-triazin-2-yl]-4-(difluoromethyl)pyridin-2-amine]: the IC50 worked out at 354 nM in data set [1] (Homo sapiens, A2058, 1 h) and 209 nM in data set [2] (Homo sapiens, A2058, 1 h).

As for `Nc1cc(C(F)F)c(-c2nc(N3CCOCC34CCC4)nc(N3CCOCC34CCC4)n2)cn1` [Compound 55, 5-[4,6-bis(8-oxa-5-azaspiro[3.5]nonan-5-yl)-1,3,5-triazin-2-yl]-4-(difluoromethyl)pyridin-2-amine], the IC50 turned out to be 942 nM in data set [1] (Homo sapiens, A2058, 1 h) and 526 nM in data set [2] (Homo sapiens, A2058, 1 h).

Turning to `C[C@@H]1COCCN1c1nc(-c2cnc(N)cc2C(F)F)nc(N2[C@H](C)COC[C@H]2C)n1` [Compound 78, 4-(difluoromethyl)-5-[4-[(3R,5R)-3,5-dimethylmorpholin-4-yl]-6-[(3R)-3-methylmorpholin-4-yl]-1,3,5-triazin-2-yl]pyridin-2-amine], the IC50 in data set [1] (Homo sapiens, A2058, 1 h) stood at 506 nM; in data set [2] (Homo sapiens, A2058, 1 h) it was 392 nM.

`CC[C@H]1COCCN1c1nc(-c2cnc(N)cc2C(F)F)nc(N2CCOC[C@H]2C)n1` [Compound 85, 4-(difluoromethyl)-5-[4-[(3S)-3-ethylmorpholin-4-yl]-6-[(3R)-3-methylmorpholin-4-yl]-1,3,5-triazin-2-yl]pyridin-2-amine] registered an IC50 in data set [2] (Homo sapiens, A2058, 1 h) of 241 nM.

Regarding `CC[C@@H]1COCCN1c1nc(-c2cnc(N)cc2C(F)F)nc(N2CCOC[C@H]2C)n1` [Compound 86, 4-(difluoromethyl)-5-[4-[(3R)-3-ethylmorpholin-4-yl]-6-[(3R)-3-methylmorpholin-4-yl]-1,3,5-triazin-2-yl]pyridin-2-amine], the IC50 in data set [1] (Homo sapiens, A2058, 1 h) worked out at 231 nM.

Regarding `CC[C@@H](C(N)=O)N1CCCC1=O` [Levetiracetam, reference compound], in data set [3] (setting [4]), the “Threshold difference between nonepileptic and epileptic” value is given as −4%; the “Threshold difference between vehicle and drug threshold, nonepileptic” value turned out to be 21%.

Regarding `CCC1(c2ccccc2)C(=O)NC(=O)NC1=O` [Phenobarbital, reference compound], in data set [3] (epileptic mice), the CC50 is 26.56 mA and the threshold increase was 66%. Besides, in data set [3] (nonepileptic mice), the CC50 is 25.7 mA and the threshold increase came to 69%. For the same compound, the “duration of noticeable sedation” value in data set [3] (mice observed in home cages after injection) was “more than 60 min”.

As for `CO[C@H]1C[C@@H]2CC[C@@H](C)[C@@](O)(O2)C(=O)C(=O)N2CCCC[C@H]2C(=O)O[C@H]([C@H](C)C[C@@H]2CC[C@@H](O)[C@H](OC)C2)CC(=O)[C@H](C)/C=C(\C)[C@@H](O)[C@@H](OC)C(=O)[C@H](C)C[C@H](C)/C=C/C=C/C=C/1C` [rapamycin, reference compound], in data set [3] (epileptic mice), the “increase of the seizure threshold in MEST” value was 5% and the “increase of the threshold” value is listed as “no effect”. In data set [3] (nonepileptic mice), the “increase of the seizure threshold in MEST” value was found to be 13% and the “increase of the threshold” value is given as 20%.

As a reminder, the IC50 is the midpoint of a concentration-inhibition curve.

Values taken from patent US11878972B2, “Treatment of neurological disorders” (TORQUR AG, priority 2016, dated 2024).
